{"source": "patent US20250084035A1", "about": "“POLYMORPHIC FORM OF MEISOINDIGO AND MODIFIED FORMULATION OF MEISOINDIGO” (STATIA BIOPHARMA INC., priority 2018, published 2025)", "key": {"[1]": {"test": "Particle size and distribution, Malvern Mastersizer 2000", "assay_type": "physicochemical", "details": "for Particle size d10 / Particle size d50 / Particle size d90: Crystal Form I, Malvern Mastersizer 2000; for Particle Size Distribution Ratio: calculated as (d90-d10)/d50", "protocol": "Crystal Form I was analyzed for its particle size and distribution. Five batches were tested using a Malvern Mastersizer 2000 (MIIA14730, Malvern, UK)."}, "leukemia cells": {"test_system": "leukemia cells", "details": "cited from earlier work"}, "[2]": {"test": "Solubility in solvents (descriptive)", "assay_type": "physicochemical"}, "ulcerative colitis": {"test_system": "ulcerative colitis", "test": "Clinical trial in ulcerative colitis", "assay_type": "in vivo, humans", "details": "recent clinical trial"}}}
{"smiles": "CN1C(=O)/C(=C2/C(=O)Nc3ccccc32)c2ccccc21", "note": "[NAT-0801, N-methylisoindigo]", "values": [{"measurement": "Particle size d10", "setting": "[1]", "result": 3.249, "unit": "μm"}, {"measurement": "Particle size d50", "setting": "[1]", "result": 12.268, "unit": "μm"}, {"measurement": "Particle size d90", "setting": "[1]", "result": 23.99, "unit": "μm"}, {"measurement": "Particle Size Distribution Ratio", "setting": "[1]", "result": 1.69}]}
{"smiles": "CN1C(=O)/C(=C2/C(=O)Nc3ccccc32)c2ccccc21", "note": "[NAT-1201, N-methylisoindigo]", "values": [{"measurement": "Particle size d10", "setting": "[1]", "result": 3.599, "unit": "μm"}, {"measurement": "Particle size d50", "setting": "[1]", "result": 13.301, "unit": "μm"}, {"measurement": "Particle size d90", "setting": "[1]", "result": 26.897, "unit": "μm"}, {"measurement": "Particle Size Distribution Ratio", "setting": "[1]", "result": 1.75}]}
{"smiles": "CN1C(=O)/C(=C2/C(=O)Nc3ccccc32)c2ccccc21", "note": "[NAT-1202, N-methylisoindigo]", "values": [{"measurement": "Particle size d10", "setting": "[1]", "result": 5.035, "unit": "μm"}, {"measurement": "Particle size d50", "setting": "[1]", "result": 15.603, "unit": "μm"}, {"measurement": "Particle size d90", "setting": "[1]", "result": 30.339, "unit": "μm"}, {"measurement": "Particle Size Distribution Ratio", "setting": "[1]", "result": 1.62}]}
{"smiles": "CN1C(=O)/C(=C2/C(=O)Nc3ccccc32)c2ccccc21", "note": "[NAT-0601, N-methylisoindigo]", "values": [{"measurement": "Particle size d10", "setting": "[1]", "result": 2.506, "unit": "μm"}, {"measurement": "Particle size d50", "setting": "[1]", "result": 12.464, "unit": "μm"}, {"measurement": "Particle size d90", "setting": "[1]", "result": 25.635, "unit": "μm"}, {"measurement": "Particle Size Distribution Ratio", "setting": "[1]", "result": 1.86}]}
{"smiles": "CN1C(=O)/C(=C2/C(=O)Nc3ccccc32)c2ccccc21", "note": "[NAT-1203, N-methylisoindigo]", "values": [{"measurement": "Particle size d10", "setting": "[1]", "result": 5.295, "unit": "μm"}, {"measurement": "Particle size d50", "setting": "[1]", "result": 15.674, "unit": "μm"}, {"measurement": "Particle size d90", "setting": "[1]", "result": 30.015, "unit": "μm"}, {"measurement": "Particle Size Distribution Ratio", "setting": "[1]", "result": 1.58}]}
{"smiles": "CN1C(=O)/C(=C2/C(=O)Nc3ccccc32)c2ccccc21", "note": "[N-methylisoindigo]", "values": [{"measurement": "Cell cycle effect", "setting": "leukemia cells; leukemia cells", "result": "arrests leukemia cells at G phase"}, {"measurement": "Expression of oncogene c-myb", "setting": "leukemia cells; leukemia cells", "result": "inhibits"}, {"measurement": "Cell growth", "setting": "leukemia cells; low concentrations, without a decrease in cell viability", "result": "completely inhibited"}, {"measurement": "Solubility", "setting": "[2]; in acetone", "result": "sparingly soluble"}, {"measurement": "Solubility", "setting": "[2]; in chloroform", "result": "sparingly soluble"}, {"measurement": "Solubility", "setting": "[2]; in ethanol", "result": "sparingly soluble"}, {"measurement": "Solubility", "setting": "[2]; in water", "result": "slightly soluble"}, {"measurement": "Efficacy against ulcerative colitis", "setting": "ulcerative colitis", "result": "very effective"}, {"measurement": "Side effects", "setting": "ulcerative colitis", "result": "no significant side effects"}]}
